One substance from patent US20210355223A1, “Combinations for Treating Cancer” (Pfizer Inc., priority 2018, published 2021) can be followed below.

The assay addresses IL-2Rαβ (Homo sapiens, UniProt P01589+P14784). The following applies: relative to IL-2 as standard. The text has this:
The term “CD-122-biased cytokine agonist”, as used herein, refers to an agonist that has a greater affinity for binding to IL-2Rβ than to IL-2Rαβ.

Sequence of IL-2Rαβ (P01589 22-240 limits assumed): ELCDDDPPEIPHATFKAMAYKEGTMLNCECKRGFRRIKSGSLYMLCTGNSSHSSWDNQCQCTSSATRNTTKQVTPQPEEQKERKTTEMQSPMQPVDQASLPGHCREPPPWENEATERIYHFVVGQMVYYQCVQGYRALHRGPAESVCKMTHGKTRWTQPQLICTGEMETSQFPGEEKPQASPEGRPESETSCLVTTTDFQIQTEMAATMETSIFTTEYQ
Sequence of IL-2Rαβ (P14784 27-240 limits assumed): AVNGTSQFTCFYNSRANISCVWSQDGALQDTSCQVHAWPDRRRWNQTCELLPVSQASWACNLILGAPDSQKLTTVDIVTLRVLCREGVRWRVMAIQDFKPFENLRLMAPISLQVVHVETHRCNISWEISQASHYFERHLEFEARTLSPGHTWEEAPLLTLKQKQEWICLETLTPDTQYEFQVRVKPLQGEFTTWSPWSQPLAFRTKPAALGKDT

Consider “(2,7-(bis-methoxyPEG10kD-carboxyamide)(9H-fluorene-9-yl)methyl N-carbamate)6avginterleukin-2 [bempegaldesleukin]”, for which the “decrease in affinity to IL-2Rαβ relative to IL-2” value is ~60 fold.
